Target: T1, Coagulation factor XII (Homo sapiens, UniProt P00748)
T1 sequence (P00748 whole entry): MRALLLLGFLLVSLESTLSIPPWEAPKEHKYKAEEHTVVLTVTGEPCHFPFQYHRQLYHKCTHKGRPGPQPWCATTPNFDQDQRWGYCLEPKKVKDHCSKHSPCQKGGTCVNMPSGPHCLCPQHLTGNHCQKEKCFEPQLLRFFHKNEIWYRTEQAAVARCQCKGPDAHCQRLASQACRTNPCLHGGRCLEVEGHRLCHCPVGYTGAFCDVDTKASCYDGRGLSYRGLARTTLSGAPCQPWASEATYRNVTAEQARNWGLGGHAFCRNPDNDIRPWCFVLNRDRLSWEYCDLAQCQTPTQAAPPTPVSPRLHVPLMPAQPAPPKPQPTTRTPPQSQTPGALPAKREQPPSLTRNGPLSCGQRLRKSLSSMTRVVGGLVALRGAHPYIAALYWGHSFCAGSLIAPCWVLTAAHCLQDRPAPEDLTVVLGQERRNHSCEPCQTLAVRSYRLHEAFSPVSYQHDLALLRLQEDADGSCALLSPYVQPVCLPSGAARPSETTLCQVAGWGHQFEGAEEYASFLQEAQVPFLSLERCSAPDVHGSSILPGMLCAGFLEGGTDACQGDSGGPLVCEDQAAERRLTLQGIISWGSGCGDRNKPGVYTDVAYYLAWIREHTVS
Experiment: Factor XIIa assay: Factor XIIa activity determinations were made in 50 mM HEPES buffer containing 150 mM NaCl, 5 mM CaCl2, and 0.1% PEG 8000 (polyethylene glycol; JT Baker or Fisher Scientific) at pH 7.4. Determinations were made using purified human Factor XIIa at a final concentration of […] (Sekisui Diagnostics) and the synthetic substrate, n-Acetyl-Lys-Pro-Arg-AFC, TFA salt (Sigma # C6608) at a concentration of 100 μM.

`C[N+](C)(C)CCCC[C@@H](NC1CCCCC1)C(=O)N1CC[C@@H](NC(=O)N2CCC3(CC2)CC3)[C@@H](C(=O)NCc2ccccc2)C1` was tested, and the IC50 was 0.005 µM.
In the case of `O=C(NCc1cccs1)[C@H]1CN(C(=O)C(CC2CCNCC2)NC2CCCCC2)CC[C@H]1NC(=O)N1CCC2(CC1)CC2` (some centres not stated), the IC50 is reported as 0.0829 µM.
